Experiments:
Assay type in all cases: in vivo
barnyardgrass [1] = assay: Test Example 4: herbicidal effect in foliage treatment; details: dose 3.2 g/a, three weeks after the application
Method in brief: (§1)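 Seeds sown in sterilized diluvial soil under ~1.5 cm soil cover and grown 14 days in a greenhouse at 25 to 30° C. Emulsifiable concentrates diluted with water were then sprayed uniformly on foliage at predetermined doses (g/a). Herbicidal effect was scored three weeks after application on a graded evaluation scale.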

common ragweed [2] = assay: as above; details: dose 3.2 g/a, three weeks after the application
Method in brief: as §1

posumbu knotweed [3] = assay: as above; details: dose 3.2 g/a, three weeks after the application
Method in brief: as §1

beadstraw [4] = assay: as above; details: dose 3.2 g/a, three weeks after the application
Method in brief: as §1

redroot pigweed [5] = assay: as above; details: dose 3.2 g/a, three weeks after the application
Method in brief: as §1

Italian ryegrass [6] = assay: as above; details: dose 3.2 g/a, three weeks after the application
Method in brief: as §1

giant foxtail [7] = assay: as above; details: dose 3.2 g/a, three weeks after the application
Method in brief: as §1

common lambsquater [8] = assay: as above; details: dose 3.2 g/a, three weeks after the application
Method in brief: as §1

wild oat [9] = assay: as above; details: dose 3.2 g/a, three weeks after the application
Method in brief: as §1

water foxtail [10] = assay: as above; details: dose 3.2 g/a, three weeks after the application
Method in brief: as §1

large crabgrass [11] = assay: as above; details: dose 3.2 g/a, three weeks after the application
Method in brief: as §1

common chickweed [12] = assay: as above; details: dose 3.2 g/a, three weeks after the application
Method in brief: as §1

velvetleaf [13] = assay: as above; details: dose 3.2 g/a, three weeks after the application
Method in brief: as §1

barnyardgrass [14] = assay: Test Example 2: herbicidal effects during the vegetation period under submerged conditions; details: treatment during the vegetation period under submerged conditions; dose 2.52 g/a
Method in brief: (§2)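 Barnyardgrass, bulrush and ducksalad were co-sown in alluvial soil flooded to 4 cm and grown in a greenhouse at 25 to 30° C. At the 1- or 2-leaf stage, water-diluted emulsifiable concentrates went onto the water surface at set doses (g/a). Herbicidal effect was scored three weeks later on a graded scale.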

ducksalad [15] = assay: as above; details: treatment during the vegetation period under submerged conditions; dose 2.52 g/a
Method in brief: as §2

bulrush [16] = assay: as above; details: treatment during the vegetation period under submerged conditions; dose 2.52 g/a
Method in brief: as §2

transplanted rice = assay: Test Example 1: preemergence treatment under submerged conditions, effect on crop; details: dose 2.52 g/a
Method in brief: (§3)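 Flooded-paddy preemergence assay; EC diluted with water, surface-applied at weed seeding; doses g/a; rice transplanted at 2.5 leaves; 0–5 mortality score after 3 weeks.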

barnyardgrass [17] = assay: Test Example 3: herbicidal effects in soil treatment; details: dose 3.2 g/a
Method in brief: (§4)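 Seeds were sown in sterilized diluvial soil and covered with about 1.5 cm of soil. Compounds, formulated as emulsifiable concentrates and diluted with water, were sprayed evenly over the soil surface at set doses in g/a. Herbicidal effect was scored on a rating scale three weeks later.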

common ragweed [18] = assay: as above; details: dose 3.2 g/a
Method in brief: as §4

posumbu knotweed [19] = assay: as above; details: dose 3.2 g/a
Method in brief: as §4

beadstraw [20] = assay: as above; details: dose 3.2 g/a
Method in brief: as §4

redroot pigweed [21] = assay: as above; details: dose 3.2 g/a
Method in brief: as §4

Italian ryegrass [22] = assay: as above; details: dose 3.2 g/a
Method in brief: as §4

giant foxtail [23] = assay: as above; details: dose 3.2 g/a
Method in brief: as §4

common lambsquater [24] = assay: as above; details: dose 3.2 g/a
Method in brief: as §4

wild oat [25] = assay: as above; details: dose 3.2 g/a
Method in brief: as §4

water foxtail [26] = assay: as above; details: dose 3.2 g/a
Method in brief: as §4

large crabgrass [27] = assay: as above; details: dose 3.2 g/a
Method in brief: as §4

common chickweed [28] = assay: as above; details: dose 3.2 g/a
Method in brief: as §4

velvetleaf [29] = assay: as above; details: dose 3.2 g/a
Method in brief: as §4

barnyardgrass [30] = assay: Test Example 1: herbicidal effects in preemergence treatment under submerged conditions; details: dose 2.52 g/a
Method in brief: as §3

ducksalad [31] = assay: as above; details: dose 2.52 g/a
Method in brief: as §3

bulrush [32] = assay: as above; details: dose 2.52 g/a
Method in brief: as §3

CCOC(=O)N(c1ccccc1CN1COCN(C)C1=O)S(=O)(=O)C(F)(F)F [IV-2]
A: barnyardgrass, herbicidal effect (barnyardgrass [1]): 4 (mortality of at least 70% and less than 90%) | J: common ragweed, herbicidal effect (common ragweed [2]): 1 (mortality of at least 5% and less than 20%) | M: posumbu knotweed, herbicidal effect (posumbu knotweed [3]): 0 (mortality of less than 5% (almost ineffective)) | O: beadstraw, herbicidal effect (beadstraw [4]): 0 (mortality of less than 5% (almost ineffective)) | K: redroot pigweed, herbicidal effect (redroot pigweed [5]): 0 (mortality of less than 5% (almost ineffective)) | H: Italian ryegrass, herbicidal effect (Italian ryegrass [6]): 0 (mortality of less than 5% (almost ineffective)) | E: giant foxtail, herbicidal effect (giant foxtail [7]): 3 (mortality of at least 40% and less than 70%) | L: common lambsquater, herbicidal effect (common lambsquater [8]): 0 (mortality of less than 5% (almost ineffective)) | F: wild oat, herbicidal effect (wild oat [9]): 0 (mortality of less than 5% (almost ineffective)) | G: water foxtail, herbicidal effect (water foxtail [10]): 5 (mortality of 90% or above (nearly complete death)) | D: large crabgrass, herbicidal effect (large crabgrass [11]): 5 (mortality of 90% or above (nearly complete death)) | N: common chickweed, herbicidal effect (common chickweed [12]): 0 (mortality of less than 5% (almost ineffective)) | I: velvetleaf, herbicidal effect (velvetleaf [13]): 3 (mortality of at least 40% and less than 70%) | A: barnyardgrass, herbicidal effect (evaluation scale 0-5) (barnyardgrass [14]): 5 (mortality of 90% or above (nearly complete death)) | C: ducksalad, herbicidal effect (evaluation scale 0-5) (ducksalad [15]): 4 (mortality of at least 70% and less than 90%) | B: bulrush, herbicidal effect (evaluation scale 0-5) (bulrush [16]): 5 (mortality of 90% or above (nearly complete death)) | a: transplanted rice, effect on crop (evaluation scale 0-5) (transplanted rice): 0 (mortality of less than 5% (almost ineffective)) | herbicidal effect, A: barnyardgrass (barnyardgrass [17]): 5 (mortality of 90% or above (nearly complete death)) | herbicidal effect, J: common ragweed (common ragweed [18]): 0 (mortality of less than 5% (almost ineffective)) | herbicidal effect, M: posumbu knotweed (posumbu knotweed [19]): 0 (mortality of less than 5% (almost ineffective)) | herbicidal effect, O: beadstraw (beadstraw [20]): 0 (mortality of less than 5% (almost ineffective)) | herbicidal effect, K: redroot pigweed (redroot pigweed [21]): 0 (mortality of less than 5% (almost ineffective)) | herbicidal effect, H: Italian ryegrass (Italian ryegrass [22]): 2 (mortality of at least 20% and less than 40%) | herbicidal effect, E: giant foxtail (giant foxtail [23]): 4 (mortality of at least 70% and less than 90%) | herbicidal effect, L: common lambsquater (common lambsquater [24]): 0 (mortality of less than 5% (almost ineffective)) | herbicidal effect, F: wild oat (wild oat [25]): 0 (mortality of less than 5% (almost ineffective)) | herbicidal effect, G: water foxtail (water foxtail [26]): 5 (mortality of 90% or above (nearly complete death)) | herbicidal effect, D: large crabgrass (large crabgrass [27]): 5 (mortality of 90% or above (nearly complete death)) | herbicidal effect, N: common chickweed (common chickweed [28]): 0 (mortality of less than 5% (almost ineffective)) | herbicidal effect, I: velvetleaf (velvetleaf [29]): 2 (mortality of at least 20% and less than 40%) | A: barnyardgrass, herbicidal effect (evaluation scale 0-5) (barnyardgrass [30]): 5 (mortality of 90% or above (nearly complete death)) | C: ducksalad, herbicidal effect (evaluation scale 0-5) (ducksalad [31]): 3 (mortality of at least 40% and less than 70%) | B: bulrush, herbicidal effect (evaluation scale 0-5) (bulrush [32]): 5 (mortality of 90% or above (nearly complete death))

CN1COCN(Cc2ccccc2N(C(=O)OCCCl)S(=O)(=O)C(F)(F)F)C1=O [IV-3]
A: barnyardgrass, herbicidal effect (barnyardgrass [1]): 4 (mortality of at least 70% and less than 90%) | J: common ragweed, herbicidal effect (common ragweed [2]): 1 (mortality of at least 5% and less than 20%) | M: posumbu knotweed, herbicidal effect (posumbu knotweed [3]): 0 (mortality of less than 5% (almost ineffective)) | O: beadstraw, herbicidal effect (beadstraw [4]): 0 (mortality of less than 5% (almost ineffective)) | K: redroot pigweed, herbicidal effect (redroot pigweed [5]): 0 (mortality of less than 5% (almost ineffective)) | H: Italian ryegrass, herbicidal effect (Italian ryegrass [6]): 1 (mortality of at least 5% and less than 20%) | E: giant foxtail, herbicidal effect (giant foxtail [7]): 3 (mortality of at least 40% and less than 70%) | L: common lambsquater, herbicidal effect (common lambsquater [8]): 0 (mortality of less than 5% (almost ineffective)) | F: wild oat, herbicidal effect (wild oat [9]): 0 (mortality of less than 5% (almost ineffective)) | G: water foxtail, herbicidal effect (water foxtail [10]): 5 (mortality of 90% or above (nearly complete death)) | D: large crabgrass, herbicidal effect (large crabgrass [11]): 4 (mortality of at least 70% and less than 90%) | N: common chickweed, herbicidal effect (common chickweed [12]): 5 (mortality of 90% or above (nearly complete death)) | I: velvetleaf, herbicidal effect (velvetleaf [13]): 3 (mortality of at least 40% and less than 70%) | A: barnyardgrass, herbicidal effect (evaluation scale 0-5) (barnyardgrass [14]): 5 (mortality of 90% or above (nearly complete death)) | C: ducksalad, herbicidal effect (evaluation scale 0-5) (ducksalad [15]): 4 (mortality of at least 70% and less than 90%) | B: bulrush, herbicidal effect (evaluation scale 0-5) (bulrush [16]): 5 (mortality of 90% or above (nearly complete death)) | a: transplanted rice, effect on crop (evaluation scale 0-5) (transplanted rice): 0 (mortality of less than 5% (almost ineffective)) | herbicidal effect, A: barnyardgrass (barnyardgrass [17]): 5 (mortality of 90% or above (nearly complete death)) | herbicidal effect, J: common ragweed (common ragweed [18]): 0 (mortality of less than 5% (almost ineffective)) | herbicidal effect, M: posumbu knotweed (posumbu knotweed [19]): 0 (mortality of less than 5% (almost ineffective)) | herbicidal effect, O: beadstraw (beadstraw [20]): 0 (mortality of less than 5% (almost ineffective)) | herbicidal effect, K: redroot pigweed (redroot pigweed [21]): 0 (mortality of less than 5% (almost ineffective)) | herbicidal effect, H: Italian ryegrass (Italian ryegrass [22]): 0 (mortality of less than 5% (almost ineffective)) | herbicidal effect, E: giant foxtail (giant foxtail [23]): 3 (mortality of at least 40% and less than 70%) | herbicidal effect, L: common lambsquater (common lambsquater [24]): 0 (mortality of less than 5% (almost ineffective)) | herbicidal effect, F: wild oat (wild oat [25]): 0 (mortality of less than 5% (almost ineffective)) | herbicidal effect, G: water foxtail (water foxtail [26]): 5 (mortality of 90% or above (nearly complete death)) | herbicidal effect, D: large crabgrass (large crabgrass [27]): 4 (mortality of at least 70% and less than 90%) | herbicidal effect, N: common chickweed (common chickweed [28]): 0 (mortality of less than 5% (almost ineffective)) | herbicidal effect, I: velvetleaf (velvetleaf [29]): 5 (mortality of 90% or above (nearly complete death)) | A: barnyardgrass, herbicidal effect (evaluation scale 0-5) (barnyardgrass [30]): 5 (mortality of 90% or above (nearly complete death)) | C: ducksalad, herbicidal effect (evaluation scale 0-5) (ducksalad [31]): 5 (mortality of 90% or above (nearly complete death)) | B: bulrush, herbicidal effect (evaluation scale 0-5) (bulrush [32]): 5 (mortality of 90% or above (nearly complete death))
